Measured values as given in US20080146593A1, “Substituted 5-Phenyl Pyrimidines I In Therapy” (Basf Aktiengesellschaft, priority 2005, published 2008).

System: HeLa cells
Test: Measurement of the cell cycle inhibition in HeLa cells
Format: cell-based
Conditions: HeLa B cells, 20 h incubation with compound; FACS ratio G0/G1 to G2/M vs DMSO; concentration at which 50% of cells are in cell cycle arrest
In short: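 HeLa B cells exposed 20 h to compounds (1×10^−9 to 1×10^−6 M final), then lysed in RNase/propidium iodide buffer and analysed by FACS. G0/G1 to G2/M ratio compared with DMSO controls; IC50 is concentration giving 50% of cells in cell cycle arrest.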

Compound	IC50 [nM]
C[C@H](Nc1nc(C#N)nc(Cl)c1-c1c(F)cc(F)cc1F)C(F)(F)F [Example 10]	47
CC(C)Nc1nc(-n2nccc2[N+](=O)[O-])nc(Cl)c1-c1c(F)cc(F)cc1F [Example 23]	39
CC(Nc1nc(-c2cccnn2)nc(Cl)c1-c1c(F)cc(F)cc1F)C(F)(F)F (centres unmarked) [Example 78]	21
C[C@H](Nc1nc(-n2cc(Cl)cn2)nc(Cl)c1-c1c(F)cc(F)cc1F)C(F)(F)F [Example 35]	36
CON=C(N)c1nc(Cl)c(-c2ccc(OC)cc2Cl)c(N[C@@H](C)C(F)(F)F)n1 [Example 216]	27

Second part, the compound after the results:

IC50 [nM]	Compound
12	COc1cc(F)c(-c2c(Cl)nc(C(N)=NO)nc2N[C@@H](C)C(C)C)c(F)c1 [Example 191]
21	C[C@H](Nc1nc(C(N)=NOC(F)F)nc(Cl)c1-c1c(F)cc(F)cc1F)C(F)(F)F [Example 177]
19	CC(C)[C@@H](C)Nc1nc(-n2cncn2)nc(Cl)c1-c1c(F)cc(F)cc1F [Example 60]
